Patent US12691108B2, “Methods for treating vascular malformations” (Deciphera Pharmaceuticals, LLC, priority 2019, dated 2026)

How the values were obtained:
WT TIE2 and TIE2 mutants = experiment: Mutant TIE2-transfected HUVEC Western blot assay: TIE2 phosphorylation; format: cell-based, human; settings: 100 nM, 4 hours, HUVECs with WT TIE2 and TIE2 mutants, presence or absence of ANGPT1 stimulation
Procedure: (§1) HUVECs used for in vitro work were kindly provided by Dr. Lauri Eklund (Oulu, Finland). Briefly, cells were grown in endothelial cell growth media (Tebu-Bio, Boechout, Belgium) containing 10% fetal calf serum (Sigma-Aldrich, Diegem, Belgium) at 37 degrees Celsius, 5% CO2, and 95% humidity. Cells were allowed to expand until reaching 90-95% confluence at which point they were subcultured or harvested for assay use.
(§2) HUVEC cells (2.5×10^5 cells/well) stably expressing WT or TIE2 mutants R849W, L914F, R1099*, Y897C/R915C, Y897F/F915L, or T1105N/T1106P were added to a 6-well plate coated with attachment factor solution (Tebu-Bio, Boechout, Belgium) in 2 mL of endothelial cell growth media (Tebu-Bio, Boechout, Belgium) containing 10% fetal calf serum (Sigma-Aldrich, Diegem, Belgium). Cells were subsequently incubated overnight at 37 degrees Celsius, 5% CO2, and 95% humidity. The next day test compound or DMSO was added to the wells (0.068% final DMSO concentration). The plates were then incubated for 4 hours at 37 degrees Celsius, 5% CO2, and 95% humidity. Next, cells were stimulated with 1 μg/mL ANGPT1 for 15 minutes. Cells were lysed and pTIE2, TIE2, b-actin, pAKT (S473), pAKT (T308), AKT, pSTAT1, and STAT1 were detected by Western blot.

AKT = experiment: Mutant TIE2-transfected HUVEC Western blot assay: AKT phosphorylation downstream of TIE2; format: cell-based, human; settings: 100 nM, 4 hours, HUVECs with WT TIE2 and TIE2 mutants, presence or absence of ANGPT1 stimulation
Procedure: as §1, §2

STAT1 = experiment: Mutant TIE2-transfected HUVEC Western blot assay: STAT1 phosphorylation downstream of TIE2; format: cell-based, human; settings: 100 nM, 4 hours, HUVECs with WT TIE2 and TIE2 mutants, presence or absence of ANGPT1 stimulation
Procedure: as §1, §2

TIE2 mutant HUVECs [1] = experiment: Mutant TIE2-transfected HUVEC cell morphology assay; format: cell-based, human; settings: 100 nM, imaged at 24 and 48 hours, TIE2 mutant HUVECs compared with WT TIE2 HUVECs
Procedure: as §1
HUVEC cells (5×10^5 cells/plate) stably expressing WT or TIE2 mutants R849W, L914F, R1099*, Y897C/R915C, Y897F/F915L, or T1105N/T1106P were added to a 10 cm plate coated with attachment factor solution (Tebu-Bio, Boechout, Belgium) in 6 mL of endothelial cell growth media (Tebu-Bio, Boechout, Belgium) containing 10% fetal calf serum (Sigma-Aldrich, Diegem, Belgium). Cells were then incubated for 2 days at 37 degrees Celsius, 5% CO2, and 95% humidity. Next, test compound or DMSO was added to the wells (0.068% final DMSO concentration). The plates were then further incubated for 48 hours at 37 degrees Celsius, 5% CO2, and 95% humidity. The cells were imaged by microscopy at 24 hours and 48 hours after addition of compound.

TIE2 mutant HUVECs [2] = experiment: Mutant TIE2-transfected gene expression assay (quantitative PCR); format: cell-based, human; settings: 100 nM, 48 hours, normalized to GAPDH
Procedure: as §1
HUVEC cells (5×10^5 cells/plate) stably expressing WT or TIE2 mutants R849W, L914F, R1099*, Y897C/R915C, Y897F/F915L, or T1105N/T1106P were added to a 10 cm plate coated with attachment factor solution (Tebu-Bio, Boechout, Belgium) in endothelial cell growth media (Tebu-Bio, Boechout, Belgium) containing 10% fetal calf serum (Sigma-Aldrich, Diegem, Belgium). Cells were then incubated for 2 days at 37 degrees Celsius, 5% CO2, and 95% humidity. Next, test compound or DMSO was added to the wells (0.068% final DMSO concentration). The plates were then further incubated for 48 hours at 37 degrees Celsius, 5% CO2, and 95% humidity. RNA was extracted by collecting the cells into TriPure isolation reagent (Sigma-Aldrich, Diegem, Belgium). Subsequently, cDNA from extracted RNA was synthesized using RevertAid H Minus first strand cDNA synthesis kit (Thermo Fischer Scientific, Merelbeke, Belgium). Quantitative PCR was carried out using LightCycler480 SYBRGreen master mix and a LightCycler 480 II instrument (Roche, Switzerland). cDNA for ANGPT2, PDGFB, ADAMTS1, ADAMTS9, PLAT, and PLAU were quantified and normalized to the expression from the housekeeping gene GAPDH.

[3] = system: TIE2 mutant expressing HUVECs; experiment: Mutant TIE2-transfected fibronectin assay (extracellular matrix); format: cell-based, human; settings: 100 nM, 48 hours, TIE2 mutant HUVECs versus WT TIE2
Procedure: as §1
HUVEC cells (3×10^5 cells/well) stably expressing WT or TIE2 mutants R849W, L914F, R1099*, Y897C/R915C, Y897F/F915L, or T1105N/T1106P were added to a 6-well plate coated with attachment factor solution (Tebu-Bio, Boechout, Belgium) in endothelial cell growth media (Tebu-Bio, Boechout, Belgium) containing 10% fetal calf serum (Sigma-Aldrich, Diegem, Belgium). Cells were then incubated for 24 hours at 37 degrees Celsius, 5% CO2, and 95% humidity. Next, test compound or DMSO was added to the wells (0.068% final DMSO concentration). The plates were then further incubated for 48 hours at 37 degrees Celsius, 5% CO2, and 95% humidity. Cells were switched into 2% FBS for overnight. Intracellular fibronectin levels were lower in transfectants, thus cellular lysates were collected and used as controls. […]

[4] = system: HUVEC cells expressing mutant TIE2-L914F (VM lesions in matrigel plugs); experiment: Venous malformation mouse model, diet from day of injection (Day 0); format: in vivo, athymic nude male mice
Procedure: (§3) For the in vivo model, fresh HUVEC transfectants were made using lentiviral infection. […]. Subsequently, 25,000 HUVECs/well (LGC Standards sarl, France) were grown on a 24-well plate for 24 hrs, infected with 500 μl of the lentivirus-TIE2-L914F mix, then cultured for another 48 hrs, collected, then frozen.
(§4) To evaluate the effect of the compound on vascular malformation (VM) lesion development in vivo, HUVEC cells (2.5×10^6) expressing mutant TIE2-L914F were cultured, detached, then resuspended in 200 μL matrigel (Corning). The mixture was injected subcutaneously into the dorsal back of athymic nude male mice, aged 5-7 weeks (Charles River). […] At post-implant day 7 or 16, mice were euthanized and the skin surrounding each matrigel plug was excised, then pinned flat onto a styrofoam board and fixed in 10% neutral buffered formalin solution (Sigma-Aldrich, Diegem, Belgium) overnight. Matrigel plugs were removed from the murine skin, dehydrated in a series of graded alcohol, and embedded in paraffin. Paraffin-embedded plugs were then cut into 5 μm sections for histological analysis. After de-paraffinization in xylene and rehydration in a series of degraded alcohol, sections were subjected to heat-induced antigen-retrieval in 0.1 M citrate buffer, pH 6.0, with or without 0.05% Tween-20. For immunohistochemical staining, sections were blocked with 3% H2O2 (Sigma-Aldrich, Diegem, Belgium), incubated with a biotinylated antibody against the human endothelial cell marker Ulex europaeus Agglutinin 1 (UEA1) (Vector labs, Brussels, Belgium), followed by a horseradish peroxidase-conjugated streptavidin secondary antibody (GE Healthcare, Diegem, Belgium), then in a DAB solution (Vector labs, Brussels, Belgium). Sections were counterstained with hematoxylin and mounted with VectaMount permanent mounting medium (Vector labs, Brussels, Belgium). For immunofluorescent staining (IF), sections were incubated with primary antibodies that recognize UEA1, the smooth muscle layer marker SMA (clone 1A4, Sigma-Aldrich, Diegem, Belgium), phosphorylated-TIE2(Y772) (Bioke, Leiden, Netherlands), or total TIE2 (Santa Cruz, Heidelberg, Germany). Secondary antibodies used were conjugated to Alexa488-, Alexa649-, or CY5-fluorophores. Slides were mounted with VectaShield Hardset mounting medium with DAPI (Vector labs, Brussels, Belgium). Images were acquired via a Panoramic 250 Flash III digital slide scanner (3D Histech, Hungary) and visualized with Caseviewer version 2.2 software (3D Histech, Hungary). The average vessel area was quantitated by making snapshots at a 20× objective of at least 5 areas of each matrigel plug and measuring the area of a least 6 UEA+ vessels each using ImageJ software.
To evaluate the overall vascular morphology within the explants, wholemount IF of vessels within matrigel plugs was done. After excising skins with matrigel plugs attached and flat-fixing them overnight in 10% neutral buffered formalin, an approximately 100-200 μm piece of the plug was sliced off and washed in 1×PBS. The pieces were blocked overnight in 1% BSA (v/v) (Gibco) and 0.3% Triton-X100 (Sigma-Aldrich, Diegem, Belgium) in 1×PBS, then incubated in UEA1 for at least 72 hours, followed by in CY5-streptavidin secondary antibody (Vector labs, Brussels, Belgium). Pieces were then post-fixed in 10% NBF for 10 min, then mounted with Fluormount G (Thermo Fischer Scientific, Merelbeke, Belgium). Z-stack images were acquired with a Zeiss cell observer spinning disk confocal microscope (Zeiss, Germany); 3-D projections of Z-stacks were generated by the AriVis4D software. […] Non-vascularized UEA+ cells were also present but the expression is reduced. Also conducted were comparisons of treated and untreated VM lesions at day 16 with wild type and L914F TIE2 mutants in which treatment began at day 0 (FIG. 18A-D) or day 7 (FIG. 19A-C).

[5] = system: HUVEC cells expressing mutant TIE2-L914F (VM lesions in matrigel plugs); experiment: Venous malformation mouse model, previously established VM lesions, diet from post-implant day 7; format: in vivo, athymic nude male mice
Procedure: as §3
as §4, with “For immunofluorescent staining (IF), sections were incubated with primary antibodies that recognize UEA1, the smooth muscle layer marker SMA (clone 1A4, Sigma-Aldrich, Diegem, Belgium), phosphorylated-TIE2(Y772) (Bioke, Leiden, Netherlands), or total TIE2 (Santa Cruz, Heidelberg, Germany). Secondary antibodies used were conjugated to Alexa488-, Alexa649-, or CY5-fluorophores. Slides were mounted with VectaShield Hardset mounting medium with DAPI (Vector labs, Brussels, Belgium). Images were acquired via a Panoramic 250 Flash III digital slide scanner (3D Histech, Hungary) and visualized with Caseviewer version 2.2 software (3D Histech, Hungary).” left out, “software. […]” for “software.”

[6] = diet equivalent to 10 mg/kg from Day 0, post-implant day 7
[7] = diet equivalent to 10 mg/kg from Day 0, post-implant day 7, versus control diet
[8] = diet equivalent to 10 mg/kg from Day 0, post-implant day 16

## CNC(=O)c1cc(Oc2ccc(NC(=O)Nc3cc(C(C)(C)C)nn3-c3ccc4ncccc4c3)c(F)c2)ccn1 [compound of Formula I, rebastinib]
WT TIE2 and TIE2 mutants
  inhibition of TIE2 phosphorylation: complete inhibition
AKT
  inhibition of AKT Ser473 phosphorylation: complete inhibition
  inhibition of AKT Thr308 phosphorylation: complete inhibition
STAT1
  inhibition of STAT1 phosphorylation: complete inhibition
TIE2 mutant HUVECs [1]
  cellular morphology: restored cellular morphology
TIE2 mutant HUVECs [2]
  expression of ADAMTS1 RNA: decreased expression
  expression of ADAMTS9 RNA: decreased expression
  expression of ANGPT2 RNA: increased expression
  expression of PDGFB RNA: increased expression
  expression of PLAT RNA: decreased expression
  expression of PLAU RNA: decreased expression
[3]
  fibronectin levels in the extracellular matrix: restored fibronectin levels
[4]; diet equivalent to 10 mg/kg from Day 0, compared to untreated mutants
  gross appearance of blood-filled vascular channels (macroscopic view of lesions): more controlled and less severe
[4]; [6]
  overall vascular morphology (wholemount IF): more normal, tubular vessels were seen
  smooth muscle cell/pericyte coverage (SMA staining): displayed a few SMA positive cells
[4]; [7]
  average area of vessels within the plugs: drastically less
  expression of pTIE2 in ECs: weaker
[4]; [8]
  overall vascular morphology (wholemount IF): largely normalized
  smooth muscle cell/pericyte coverage (SMA+ cells): surrounded more consistently by SMA+ cells
[4]; diet equivalent to 10 mg/kg from Day 0, post-implant day 16, versus control diet and untreated
  vessel size in lesions: much smaller vessels
[4]; diet equivalent to 10 mg/kg from Day 0, post-implant day 16, versus untreated
  pTIE2 in ECs: drastically reduced
[4]; mice fed compound-infused food
  VM development: reduced VM development
[5]; diet from post-implant day 7
  severity of established VMs: ameliorated the severity of VMs
[5]; diet from post-implant day 7, explants day 16
  average vascular area of vessels: moderately reduced
[5]; diet from post-implant day 7, explants day 16, versus control diet
  smooth muscle cell layer coverage: improved smooth muscle cell layer coverage
